According to ChEMBL document CHEMBL5247643, “Discovery and Characterization of BAY-805, a Potent and Selective Inhibitor of Ubiquitin-Specific Protease USP21” (J Med Chem, 2023):
Calls of active or inactive are those of the source. The calls are words filed in the database; no cut-off is given here.

What was measured:
[1] = target: T1, Ubiquitin carboxyl-terminal hydrolase 21 (Homo sapiens, UniProt Q9UK80); experiment: Inhibition of human full length USP21 using Btn-Ahx-PNIRFLD-K(Ubi)-LPQQT-GD-amide as substrate preincubated for 15 to 20 mins followed by substrate addition and measured after 25 mins by HTRF assay
T1 sequence (Q9UK80 whole entry): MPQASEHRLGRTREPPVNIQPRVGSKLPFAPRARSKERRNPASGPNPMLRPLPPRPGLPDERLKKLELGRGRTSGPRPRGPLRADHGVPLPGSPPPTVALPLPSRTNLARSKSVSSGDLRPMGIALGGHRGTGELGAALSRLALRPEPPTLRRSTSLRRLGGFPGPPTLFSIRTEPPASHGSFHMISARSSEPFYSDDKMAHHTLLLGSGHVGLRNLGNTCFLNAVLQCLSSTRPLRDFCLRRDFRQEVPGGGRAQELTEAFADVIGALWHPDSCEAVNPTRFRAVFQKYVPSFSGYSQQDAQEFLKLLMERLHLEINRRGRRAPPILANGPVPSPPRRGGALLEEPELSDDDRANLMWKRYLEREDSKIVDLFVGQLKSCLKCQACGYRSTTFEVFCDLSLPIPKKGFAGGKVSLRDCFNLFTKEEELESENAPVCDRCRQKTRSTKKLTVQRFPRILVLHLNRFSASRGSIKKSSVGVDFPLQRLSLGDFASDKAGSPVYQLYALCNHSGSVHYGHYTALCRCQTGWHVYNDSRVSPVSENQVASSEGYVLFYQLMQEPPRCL

MOLM-13 = experiment: Antiproliferative activity against human MOLM-13 cells assessed as reduction in cell viability up to 30 uM incubated for 72 hrs by CellTiter-Glo luminescent assay; type: functional, cell-based
U2OS = experiment: Antiproliferative activity against human U2OS cells assessed as reduction in cell viability up to 30 uM incubated for 72 hrs by CellTiter-Glo luminescent assay; type: functional, cell-based
MDA-MB-231 = experiment: Antiproliferative activity against human MDA-MB-231 cells assessed as reduction in cell viability up to 30 uM incubated for 72 hrs by CellTiter-Glo luminescent assay; type: functional, cell-based
Jurkat = experiment: Antiproliferative activity against human Jurkat cells assessed as reduction in cell viability up to 30 uM incubated for 72 hrs by CellTiter-Glo luminescent assay; type: functional, cell-based
A549 = experiment: Antiproliferative activity against human A549 cells assessed as reduction in cell viability up to 30 uM incubated for 72 hrs by CellTiter-Glo luminescent assay; type: functional, cell-based
[2] = target: T2, Ubiquitin carboxyl-terminal hydrolase 2 (Homo sapiens, UniProt O75604); experiment: Inhibition of human His-tagged USP2 (259 to 605 residues) using ubiquitin rhodamine 110 110 as substrate preincubated for 15 to 20 mins followed by enzyme addition and measured after 25 mins by fluorometric assay
T2 sequence (O75604 whole entry): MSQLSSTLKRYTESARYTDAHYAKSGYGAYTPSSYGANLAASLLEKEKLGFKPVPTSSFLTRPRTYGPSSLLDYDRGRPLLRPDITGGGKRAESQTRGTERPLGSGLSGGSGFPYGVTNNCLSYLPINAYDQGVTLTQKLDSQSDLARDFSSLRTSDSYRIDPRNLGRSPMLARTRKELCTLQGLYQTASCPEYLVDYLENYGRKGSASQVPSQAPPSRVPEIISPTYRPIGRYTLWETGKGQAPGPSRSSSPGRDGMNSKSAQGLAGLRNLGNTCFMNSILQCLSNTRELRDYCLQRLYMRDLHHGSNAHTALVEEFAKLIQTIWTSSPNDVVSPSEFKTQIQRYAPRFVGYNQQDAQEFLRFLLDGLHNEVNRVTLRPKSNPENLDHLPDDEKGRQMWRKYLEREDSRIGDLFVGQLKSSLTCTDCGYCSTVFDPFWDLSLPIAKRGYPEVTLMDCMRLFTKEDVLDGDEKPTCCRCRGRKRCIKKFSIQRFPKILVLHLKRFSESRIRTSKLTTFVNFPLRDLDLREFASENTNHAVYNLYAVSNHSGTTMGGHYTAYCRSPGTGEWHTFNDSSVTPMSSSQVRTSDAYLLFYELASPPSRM

Structure (SMILES): N#Cc1ccc(Cc2nnc(NC(=O)[C@H](NC(=O)C3(C(F)(F)F)CCCCC3)C3CCCC3)s2)cc1
- IC50 [1]: 12 nM

Structure (SMILES): CC(C)C[C@@H](NC(=O)C1(C(F)(F)F)CCCCC1)C(=O)Nc1nnc(Cc2ccc(C#N)cc2)s1
- Activity (MOLM-13): inactive
- Activity (U2OS): inactive
- Activity (MDA-MB-231): inactive
- Activity (Jurkat): inactive
- Activity (A549): inactive

Structure (SMILES): COCC(NC(=O)C1CCCC1)C(=O)Nc1nnc(Cc2ccc([N+](=O)[O-])cc2)s1 (racemic)
- IC50 [2]: 25 µM
